For assay [1], the system named is Canis familiaris. Put plainly: Percent change in heart rate in anesthetized dog. The class given is functional, Canis lupus familiaris.
The subject of assay [2] is Canis familiaris. Put plainly: Compound tested for contractility in anesthetized dog when administered intravenously. It counts as functional. The conditions noted are these: Canis lupus familiaris, iv.
Assay [3] is filed under the species Felis catus. In words: Compound tested for contractility in isolated cat papillary muscle at 10 e-4 M. The class given is functional.
The species entered for assay [4] is Felis catus. In words: Response ratio = (percent increase to drug)/(percent increase to 10 E-5 M isoproterenol). It counts as functional.
The species entered for assay [5] is Felis catus. Put plainly: Compound tested for contractility in isolated cat papillary muscle at 10 e-5 M. The class given is functional.
Assay [6] is filed under the species Felis catus. Put plainly: Response ratio = (percent increase to drug)/(percent increase to 10 E-4 M isoproterenol). The class given is functional.
For assay [7], the system named is Canis familiaris. Put plainly: Percent change in mean arterial blood pressure in anesthetized dog. It counts as functional, Canis lupus familiaris.
For assay [8], the species on record is Felis catus. In words: Response ratio = (percent increase to drug)/(percent increase to 10 E-6 M isoproterenol). The class given is functional.

What is called ED50 is the dose at which the effect has come halfway, by size or by number of responders.

Take `COc1ccc(-c2nc3cc[nH]cc-3n2)cc1OC`: the figures for the Change in assay [1] and in assay [7] were 15% and -9%, respectively. Further, the 50% effective dose (ED50) in assay [2] stood at 0.4 mg/kg. In addition, the Control in assay [3] was 252%; in assay [5], 164%. The Response ratio in assay [4] worked out at 0.89; in assay [6], 2.11.

Turning to `c1ccc(-c2nc3cc[nH]cc-3n2)cc1`, the Change is 13% in assay [1] and -15% in assay [7]. The molecule also had a 50% effective dose (ED50) in assay [2] of 2.5 mg/kg. Also, the Control in assay [3] stood at 242%; in assay [5], 106%. Besides, the Response ratio in assay [4] was found to be 0.08; in assay [6], 1.97.

Turning to `COc1cc(S(C)(=O)=O)ccc1-c1nc2ccncc2[nH]1`, the Change is recorded as 8% in assay [1] and -5% in assay [7]. This molecule came in with a 50% effective dose (ED50) in assay [2] of 0.02 mg/kg. For the same molecule, the Control in assay [3] came to 221%; in assay [5], 176%. Further, the Response ratio worked out at 1.05 in assay [4] and 1.68 in assay [6].

As for `Clc1ccc(-c2nc3cc[nH]cc-3n2)c(Cl)c1`, the Change is 17% in assay [1] and -22% in assay [7]. This molecule also registered a median effective dose (ED50) in assay [2] of 0.7 mg/kg. Also, the Control in assay [3] is given as 171%; in assay [5], 116%. Also, the Response ratio in assay [4] came out at 0.22; in assay [6], 0.99.

As to `COc1cc(SC)ccc1-c1nc2cc[nH]cc-2n1`, the Change is recorded as 9% in assay [1] and -17% in assay [7]. Moreover, it took a dose of 0.2 mg/kg to reach the 50% effect level in assay [2] (ED50). In addition, the values for the Control in assay [3] and in assay [5] were 142% and 143%, respectively. Besides, the Response ratio in assay [4] was 0.6; in assay [6] it was 0.59.

`COc1cc(S(C)(=O)=O)ccc1-c1nc2ccc[nH]c-2n1`: the results for the Change in assay [1] and in assay [7] were 10% and -20%, respectively. The molecule also yielded an ED50 in assay [2] of 0.4 mg/kg. For the same molecule, the Control in assay [3] is given as 129%; in assay [5], 120%. For the same molecule, the Response ratio in assay [4] is 0.28; in assay [6], 0.4.

Turning to `Nc1cc(-c2ccncc2)c[nH]c1=O` [INAMRINONE], the Change is on record as 11% in assay [1] and -9% in assay [7]. In assay [2], this molecule gave a 50% effective dose (ED50) of 1.3 mg/kg. Moreover, the values for the Control in assay [3] and in assay [5] were 190% and 143%, respectively. In addition, the values for the Response ratio in assay [4] and in assay [6] were 0.61 and 1.25, respectively.

Consider `CCOc1cc(S(C)(=O)=O)ccc1-c1nc2cc[nH]cc-2n1`, for which the Change in assay [1] is reported as 7%; in assay [7] it was -11%. Moreover, in assay [2], the 50% effect level (ED50) was put at a dose of 0.07 mg/kg. The Control was 198% in assay [3] and 137% in assay [5]. Further, the Response ratio in assay [4] was 0.51; in assay [6], 1.36.

On to `COc1ccc(-c2nc3c[nH]cnc-3n2)c(OC)c1`, for which the Change was 7% in assay [1] and -15% in assay [7]. The ED50 in assay [2] amounted to 0.3 mg/kg. The values for the Control in assay [3] and in assay [5] were 215% and 117%, respectively. Further, the Response ratio is listed as 0.24 in assay [4] and 1.59 in assay [6].

Consider `CSc1ccc(-c2nc3cc[nH]cc-3n2)cc1`, for which the Change is 0% in assay [1] and -15% in assay [7]. This molecule also gave an ED50 in assay [2] of 4 mg/kg. The values for the Control in assay [3] and in assay [5] were 212% and 115%, respectively. The Response ratio came out at 0.21 in assay [4] and 1.55 in assay [6].

As to `COc1ccc(-c2nc3cc[nH]cc-3n2)c(OC)c1`, the Change in assay [1] was 9%; in assay [7] it was -17%. This molecule displayed a median effective dose (ED50) in assay [2] of 0.3 mg/kg. Moreover, the Control is listed as 172% in assay [3] and 158% in assay [5]. For the same molecule, the figures for the Response ratio in assay [4] and in assay [6] were 0.81 and 1, respectively.

With `COc1cc(C(F)(F)F)ccc1-c1nc2cc[nH]cc-2n1`, the Change in assay [1] is 10%; in assay [7], -12%. The molecule also returned a 50% effective dose (ED50) in assay [2] of 0.009 mg/kg. For the same molecule, the Control in assay [3] came out at 135%; in assay [5], 139%. Further, the Response ratio in assay [4] stood at 0.54; in assay [6], 0.49.

Take `CCCOc1cc(OC)ccc1-c1nc2cc[nH]cc-2n1`: the Change in assay [1] is -7%; in assay [7], -59%. In assay [2], the 50% effect level (ED50) was put at a dose of 1.3 mg/kg. Besides, the Control in assay [3] was determined as 336%; in assay [5] it was 134%. Also, the values for the Response ratio in assay [4] and in assay [6] were 0.47 and 3.27, respectively.

With `CCSCCOc1cc(OC)ccc1-c1nc2cc[nH]cc-2n1`, the results for the Change in assay [1] and in assay [7] were 20% and -21%, respectively. The molecule further registered a 50% effective dose (ED50) in assay [2] of 1 mg/kg. Also, the figures for the Control in assay [3] and in assay [5] were 134% and 128%, respectively. For the same molecule, the Response ratio was found to be 0.39 in assay [4] and 0.47 in assay [6].

On to `COc1cc([S+](C)[O-])ccc1-c1nc2cnccc2[nH]1` (centres undefined) [ISOMAZOLE], for which the results for the Change in assay [1] and in assay [7] were 7% and -1%, respectively. Also, it took a dose of 0.03 mg/kg to reach the 50% effect level in assay [2] (ED50). Moreover, the Control in assay [3] stood at 268%; in assay [5] it was 172%. Besides, the Response ratio was determined as 1 in assay [4] and 2.33 in assay [6].

Consider `CCCOc1cc([S+](C)[O-])ccc1-c1nc2cc[nH]cc-2n1` (centres undefined), for which the Change in assay [1] was 10%; in assay [7], -33%. It took a dose of 1 mg/kg to reach the 50% effect level in assay [2] (ED50). For the same molecule, the Control in assay [3] stood at 159%; in assay [5], 122%. Moreover, the Response ratio was 0.3 in assay [4] and 0.82 in assay [6].

Take `COc1cc([S+](C)[O-])ccc1-c1nc2cccnc2[nH]1` (centres undefined) [SULMAZOLE]: the Change in assay [1] is 13%; in assay [7], -10%. Further, the ED50 in assay [2] was 0.3 mg/kg. Further, the Control in assay [3] stood at 156%; in assay [5], 112%. Further, the Response ratio in assay [4] was found to be 0.16; in assay [6], 0.78.

`COc1cc(C)ccc1-c1nc2cc[nH]cc-2n1`: the figures for the Change in assay [1] and in assay [7] were 8% and -7%, respectively. This molecule also came in with an ED50 in assay [2] of 0.28 mg/kg. For the same molecule, the Control in assay [3] is 202%; in assay [5], 117%. Besides, the results for the Response ratio in assay [4] and in assay [6] were 0.24 and 1.42, respectively.

As for `Cc1ccc(-c2nc3cc[nH]cc-3n2)cc1C`, the Change in assay [1] was 0%; in assay [7], -53%. This molecule also showed an ED50 in assay [2] of 5.2 mg/kg. Moreover, the figures for the Control in assay [3] and in assay [5] were 226% and 133%, respectively. For the same molecule, the Response ratio in assay [4] stood at 0.46; in assay [6], 1.75.

As for `Cc1ccc(-c2nc3cc[nH]cc-3n2)c(C)c1`, the values for the Change in assay [1] and in assay [7] were 12% and -24%, respectively. Further, the ED50 in assay [2] amounted to 1.4 mg/kg. Besides, the Control in assay [3] stood at 100%; in assay [5], 93%. In addition, the Response ratio in assay [4] is -0.1; in assay [6], 0.

As for `Cc1ccccc1-c1nc2cc[nH]cc-2n1`, the Change in assay [1] is on record as 24%; in assay [7], -20%. The same molecule had an ED50 in assay [2] of 2.2 mg/kg. In addition, the results for the Control in assay [3] and in assay [5] were 188% and 106%, respectively. Further, the Response ratio was found to be 0.09 in assay [4] and 1.22 in assay [6].

For the molecule `COc1ccc(-c2nc3ccc[nH]c-3n2)c(OC)c1`, the Change in assay [1] was 18%; in assay [7], -22%. For the same molecule, in assay [2], the 50% effective dose (ED50) amounted to 0.8 mg/kg. In addition, the Control in assay [3] worked out at 264%; in assay [5], 172%. Further, the Response ratio in assay [4] came to 1; in assay [6], 2.27.

In the case of `CCCCOc1ccc(-c2nc3cc[nH]cc-3n2)cc1`, the Response ratio in assay [8] worked out at 0.19; in assay [4], 0.19; in assay [6], 2.61. For the same molecule, the Control in assay [3] is 288%; in assay [5] it was 114%.

Regarding `COc1ccc(-c2nc3cc[nH]cc-3n2)c(OCC[S+](C)[O-])c1` (centres undefined), the values for the Change in assay [1] and in assay [7] were -4% and -37%, respectively. In addition, the 50% effective dose (ED50) in assay [2] was 5.2 mg/kg. The Control came to 186% in assay [3] and 123% in assay [5]. The results for the Response ratio in assay [4] and in assay [6] were 0.32 and 1.19, respectively.

As to `COc1ccc(-c2nc3cc[nH]cc-3n2)c(OCCSC)c1`, the Change in assay [1] was 4%; in assay [7], -21%. In assay [2], this molecule yielded a 50% effective dose (ED50) of 1.1 mg/kg. Besides, the figures for the Control in assay [3] and in assay [5] were 140% and 122%, respectively. The Response ratio in assay [4] was 0.3; in assay [6], 0.55.

With `Cc1cccc(-c2nc3cc[nH]cc-3n2)c1`, the Change in assay [1] is 17%; in assay [7], -20%. Further, it took a dose of 1 mg/kg to reach the 50% effect level in assay [2] (ED50). Moreover, the Control in assay [3] was 195%; in assay [5] it was 118%. In addition, the results for the Response ratio in assay [4] and in assay [6] were 0.25 and 1.32, respectively.

Consider `CS(=O)(=O)c1ccc(-c2nc3cc[nH]cc-3n2)cc1`, for which the figures for the Change in assay [1] and in assay [7] were 10% and 2%, respectively. This molecule also displayed a 50% effective dose (ED50) in assay [2] of 7.5 mg/kg. For the same molecule, the Control in assay [3] was 137%; in assay [5] it was 117%. The Response ratio in assay [4] is 0.24; in assay [6] it was 0.51.

Consider `c1ccc(-c2nc3ccc[nH]c-3n2)cc1`, for which the Change was 7% in assay [1] and -36% in assay [7]. The molecule further displayed an ED50 in assay [2] of 8 mg/kg. Moreover, the Control in assay [3] is recorded as 112%; in assay [5], 101%. Besides, the Response ratio turned out to be 0.01 in assay [4] and 0.15 in assay [6].

The values are drawn from ChEMBL document CHEMBL1123114, “Structure-activity relationships of arylimidazopyridine cardiotonics: discovery and inotropic activity of 2-[2-methoxy-4-(methylsulfinyl)phenyl]-1H-imidazo[4,5-c]pyridine” (1985).
